In brackets after ≈: the same amount, converted by molar mass. Like-named read-outs stand apart in the source and are kept apart here. Some results are limits rather than exact numbers.

Data set [1] concerns murine fibroblast NIH 3T3 cells. Set-up: method as in PMID 20302969, doi:10.1039/c0gc00813c. Particulars: ref [29],[30]; cited from earlier work.
Data set [2] concerns P. aeruginosa ATCC 27853. Briefly: Biofilm inhibition assay (crystal violet). In kind it is cell-based, Pseudomonas aeruginosa. Conditions: any of the concentrations tested (3.12, 6.25, 12.5 μg/mL). As to the method:
(§1) After overnight growth in LB, cultures of P. aeruginosa ATCC 27853 and S. aureus W4 were diluted 1:100 in LB or in 50% tryptone soy broth (TSB, Oxoid) supplemented with 0.25% glucose (Sigma), respectively. The bacterial suspensions were dispensed into flat-bottomed polystyrene 96-well microplates (Corning Costar, Lowell, MA, USA) in the presence of sub-MIC concentrations of Rhe and DIA (3.12, 6.25, and 12.5 μg/mL). A sample containing 0.8 DMSO % (corresponding to the highest concentration of DMSO tested) was used as a control. The microplates were incubated statically at 37 °C for 24 h, and the biofilm biomass was estimated by CV (Sigma-Aldrich) staining assay, as previously described.

In data set [3] the test system is BALB/3T3 clone A31 fibroblast cells. Briefly: Cytotoxicity screening (WST-1). The class given is cell-based, murine. Conditions: Mus musculus, 4 h incubation, read-out: IC50 of cell viability. How it is done: BALB/3T3 clone A31 fibroblast cells were grown in Dulbecco’s Modified Eagle Medium (DMEM), supplemented with 2 mM L-glutamine, 1% penicillin/streptomycin, and 10% bovine calf serum. Cells were grown in a CO2 incubator (Heracell 150i series) at 37 °C and 5% CO2, with cells sub-cultured at 80–90% confluency. The cell monolayers were rinsed with PBS and treated with trypsin–EDTA to detach the cells before their resuspension in fresh media. A subconfluent monolayer of BALB/3T3 clone A31 fibroblast cells was trypsinised, centrifuged at 1000 rpm for 5 min, resuspended in growth medium, and counted.
A cytotoxicity screening was carried out for both ILs (range […]), as well as DIA and Rhe (0.5–200 mg/mL). Briefly, BALB/3T3 clone A31 fibroblast cells were seeded in each well of 96-well plates at a seeding density of 6 × 10^3 cells/well for 24 h, until 60–70% confluence was reached. After 24 h, the medium was then removed from each well and replaced with DMEM containing the samples.
After 4 h of incubation, the media were removed, replaced with fresh medium containing 10% WST-1 reagent solution, and maintained for 4 h at 37° C with 5% CO2. Afterwards, formazan dye absorbance was quantified at 450 nm with the reference wavelength at 655 nm by using a multilabel reader (BioTek 800/TS, Thermo Scientific).
Background: Formazan colour is commonly taken as a measure of viable cells.

The nature of data set [4]: Phase solubility study (apparent solubility of DIA and Rhe with ILs or HP-β-CD). The class given is physicochemical. Conditions: 25 °C, aqueous with cosolvent or surfactant or cyclodextrin, thermodynamic from solid, read-out: saturation solubility. As to the method: The increase in the apparent solubility of both DIA and Rhe in the presence of the ILs was evaluated. Briefly, aqueous solutions of the ILs were prepared in the range of 0–200 mg/mL, and an excess of either DIA or Rhe was added to each vial. The samples were then incubated for 30 min at 25°C, and the undissolved drug was removed by centrifugation at […] for 15 min (Hettich Mikro 120 centrifuge). […] The drug concentration was measured by UV–Vis analysis. The DIA phase solubility study was also compared to the phase solubility study of DIA in the presence of HP-β-CD as a reference solubility/stability-enhancing excipient. […] The complexation K was calculated through Higuchi and Connors’ method, as previously reported.
The size distribution and zeta potential values of the ILs’ aggregates in aqueous solutions were evaluated by using a Zetasizer Nano ZS (Malvern) at 25 °C. The samples were prepared by adding an excess of either DIA or Rhe (5 mg/mL) to the aqueous IL solutions, incubating them for 30 min at 25 °C, and finally removing the excess drugs by centrifugation. […] In contrast, for PB solutions, the solutions were prepared in water, and […] of 100 mM pH 7 phosphate buffer was added per 1 mL of aqueous solution, directly in the cuvette, before the dynamic light scattering (DLS) analysis started. The concentrations of the solubilised drug were determined by UV–Vis analysis.

In data set [5] the test system is S. aureus (clinical isolate W4). Briefly: MIC determination (microdilution). In kind it is cell-based, Staphylococcus aureus. How it is done:
(§2) A clinical isolate of S. aureus (W4) and the reference strain of P. aeruginosa ATCC 27853 were used in the study. For the preparation of stock cultures, bacterial strains were grown in Luria–Bertani broth (LB, Oxoid, Basingstoke, Hampshire, UK) until the late-log phase, subdivided into aliquots, and kept frozen at −80 °C until use. Identification and susceptibility testing of the S. aureus W4 strain were performed using MALDI-TOF (Bruker Daltonics, Bremen, Germany) and the BD Phoenix susceptibility testing system (BD, Milan, Italy), respectively.
(§3) The susceptibility of the bacterial strains to each of the tested compounds was assessed in terms of MIC values according to the standard microdilution method (Clinical and Laboratory Standards Institute–CLSI, 2018), with some modifications. Briefly, the bacteria were grown in LB broth until the exponential growth phase and then diluted in the same medium to reach a final density of 5 × 10^6 CFU/mL. A volume of 10 μL of the bacterial suspensions was added to 90 μL of LB in a 96-well plate in the absence (viability control) or presence of the test compound at different concentrations.
A general note: Broth dilution looks for growth in wells or tubes with falling amounts of substance.

Another data set has as its system S. aureus W4. Briefly: Biofilm inhibition assay (crystal violet). In kind it is cell-based, Staphylococcus aureus. Particulars: 12.5 μg/mL. How it is done: as §1
The test system of data set [6] is P. aeruginosa ATCC 27853. Briefly: MIC determination (microdilution). In kind it is cell-based, Pseudomonas aeruginosa. As to the method:
as §2, §3

In general, IC50 refers to the point on the concentration scale where inhibition reaches its midpoint. As to benzalkonium chloride [Bak], the IC50 in data set [1] was 9.4 µg/mL.
Usually MIC stands for the lowest concentration that inhibits growth of the organism. Low values mean inhibition by little substance, high ones a need for much substance. For the compound `O=C(O)c1cc(O)c2c(c1)C(=O)c1cccc(O)c1C2=O` [Rhe, rhein], the “biofilm formation (CV staining, OD 570 nm), difference vs control” value in the data set on P. aeruginosa ATCC 27853 [2] is recorded as “not statistically significant”. In data set [3], the IC50 was found to be 6.7 µg/mL (≈ 23.6 µM). Besides, the solubility at 30 min in data set [4] (in Bet6 solutions) is 220 µg/mL (≈ 774 µM); in data set [4] (in Carn6 solutions), 130 µg/mL (≈ 457 µM). Moreover, the MIC was 50 µg/mL (≈ 176 µM) in data set [5] (Staphylococcus aureus, planktonic cells, 24 h, 37 °C) and over 50 µg/mL in the data set with P. aeruginosa ATCC 27853 [6] (Pseudomonas aeruginosa, ATCC27853, planktonic cells, 24 h, 37 °C). Also, the antibacterial effect result in data set [5] (in words (discussion)) was “exert antibacterial effects”; in the data set with P. aeruginosa ATCC 27853 [6] (in words (discussion)) it was “inactive”. Moreover, the “biofilm formation (CV staining, OD 570 nm)” value in the data set on S. aureus W4 is reported as “statistically significant reduction in biofilm formation”.

(Values after PMC9916883, “Betaine- and L-Carnitine-Based Ionic Liquids as Solubilising and Stabilising Agents for the Formulation of Antimicrobial Eye Drops Containing Diacerein” (International Journal of Molecular Sciences, 2023).)
